Source: article PMC9418603 (JID Innovations, 2022)
“Also recorded” adds a separate entry of the source. Read-outs that look alike come from different tables or passages of the source. Where no end group is shown, it is not given here. The star is where a group is joined. Biotin = O=C1N[C@H]2[C@H](CS[C@H]2CCCCC(=O)*)N1

Key:
[1] = test system: LPS-treated dorsal skin of mice; set-up: species or system Female C57BL/6J mice; conditions: mouse, in vivo
[2] = test system: sialic acid‒specific plant lectins; conditions: cited from earlier work
[3] = test system: recombinant human siglecs; conditions: cited from earlier work
TGM2 [4] = conditions: cited from earlier work
TGM2 [5] = target: TGM2 (Cavia cutleri, UniProt P08587); assay type: biochemical, guinea pig liver
human CLEC10A (CD301) = conditions: cited from earlier work
TGM2 [6] = conditions: cited from earlier work; remark: listed apart in the source
[7] = assay type: physicochemical; conditions: pH 5
[8] = test system: N-acetylgalactosamine‒specific lectins; conditions: cited from earlier work

Sequence of TGM2 (Cavia cutleri, UniProt P08587) (P08587 whole entry): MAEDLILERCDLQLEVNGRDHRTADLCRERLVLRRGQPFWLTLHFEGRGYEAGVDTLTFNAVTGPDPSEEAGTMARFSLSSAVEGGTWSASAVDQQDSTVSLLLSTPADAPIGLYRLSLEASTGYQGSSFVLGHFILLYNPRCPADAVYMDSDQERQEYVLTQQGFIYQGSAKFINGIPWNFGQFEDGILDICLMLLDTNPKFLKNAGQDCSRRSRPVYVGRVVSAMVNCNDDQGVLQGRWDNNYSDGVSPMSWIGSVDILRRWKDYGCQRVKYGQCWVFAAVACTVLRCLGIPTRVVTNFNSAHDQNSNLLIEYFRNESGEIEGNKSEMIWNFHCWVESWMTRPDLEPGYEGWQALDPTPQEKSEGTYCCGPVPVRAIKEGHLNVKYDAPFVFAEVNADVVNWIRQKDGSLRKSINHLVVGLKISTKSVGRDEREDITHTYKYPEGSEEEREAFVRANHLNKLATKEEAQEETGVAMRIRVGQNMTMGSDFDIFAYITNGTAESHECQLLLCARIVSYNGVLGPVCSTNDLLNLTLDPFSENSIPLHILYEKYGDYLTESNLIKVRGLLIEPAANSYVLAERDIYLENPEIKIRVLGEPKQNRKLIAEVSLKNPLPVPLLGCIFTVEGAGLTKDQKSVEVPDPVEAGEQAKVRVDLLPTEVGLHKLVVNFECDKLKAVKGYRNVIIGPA

In the case of [(NPSHPLSG-GGGS)2K]2K-NH2 [svH1C], the “effectiveness, topical (general statement)” value [1] was “not effective when applied topically”, the “epidermal disruption / integrity of skin surface” value [1] was “not when applied topically” and the “epidermal morphology / thickness” value [1] was “ineffective in restoring normal epidermal morphology”. The “epidermal disruption / recovery, lesions” value ([1]; sc) was “effective when injected subcutaneously; also recorded: lesions were absent”, the epidermal thickness ([1]; sc) was “most areas of the skin contained a thickened epidermis” and the neutrophils in dermis ([1]; sc) was “abundant neutrophils in the dermis”. The “binding to sialic acid‒specific plant lectins” value [2] was “binds to sialic acid‒specific plant lectins” and the “binding to recombinant human siglecs” value [3] was “recombinant human siglecs”.

For `C[C@@H]1C[C@H]2[C@@H]3CCC4=CC(=O)C=C[C@]4(C)[C@@]3(F)[C@@H](O)C[C@]2(C)[C@@]1(O)C(=O)CO` [dexamethasone], the “induction of TGM2 expression” value (TGM2 [4]) is given as “Expression of TGM2 is induced”.

For [(VQATQS-GGGS)2K2]K-NH2 [svC1], the mean epidermal thickness [1] was 15.5 μm, the “reduction of epidermal thickness” value [1] was “active in reducing the thickness of the epidermis” and the “Km relative to svL4” value (TGM2 [5]) was “higher Km values”. The “TGM2 functional substrate / cross-linking to lysine” value (TGM2 [5]) was “the enzyme can use glutamine from the arms”, the “TGM2 substrate activity” value (TGM2 [5]) was “poor substrates in vitro” and the “TGM2 substrate activity with aged enzyme” value (TGM2 [5]) was “to a lesser extent, svC1 as substrates”. For the same compound, the “binding to human CLEC10A” value (human CLEC10A (CD301)) was “does not bind to CLEC10A”.

In the case of carbobenzoxy-L-glytaminylglycine, the Km (TGM2 [6]) is listed as 22000 µM.

In the case of Biotin-TVQQEL, the Km (TGM2 [6]; read-out: Km of standard peptide) is given as 1 µM.

With [(VQATQSNQHTPR-GGGS)2K2]K-NH2 [svL4] the “epidermal disruption / integrity of skin surface” value [1] was “restored the integrity of the skin surface, with no epidermal disruptions”, the “epidermal morphology / thickness” value [1] was “uniformly of normal thickness; also recorded: normal morphology with thin epidermis; also recorded: the epidermis had returned to a normal morphology” and the mean epidermal thickness [1] was 16.1 μm. The “neutrophils (Ly6G^+) in dermis” value [1] was “nearly free of neutrophils; also recorded: essentially free of neutrophils; also recorded: neutrophils were absent”, the “neutrophils in the dermis (summary statement)” value [1] was “loss of neutrophils in the dermis” and the “repair of structural disruption of the epidermis (general statement)” value [1] was “repair of areas of structural disruption of the epidermis; also recorded: structural disruption of the epidermis was repaired”. For the same compound, the “thickness of the epidermis (summary statement)” value [1] was “reduction of the thickness of the epidermis”, the “density of dermal collagen” value ([1]; sc) was “an increased density of dermal collagen was noted” and the “epidermal disruption / recovery, lesions” value ([1]; sc) was “no recovery occurred”. For the same compound, the epidermal thickness ([1]; sc) was “did not reduce epidermal thickness”, the “TGM2 functional substrate / cross-linking to lysine” value (TGM2 [5]) was “the enzyme can use glutamine from the arms; also recorded: functional substrates of transglutaminase (TGM) 2” and the “TGM2 substrate activity with aged enzyme” value (TGM2 [5]) was “lost over half of the activity”. The Km (TGM2 [5]; pH 7.5) was 7 µM, the positive charge [7] was 12 and the “binding to human CLEC10A” value (human CLEC10A (CD301)) was “binds with high specificity and avidity to recombinant and native human CLEC10A (CD301); also recorded: bind specifically to human CLEC10A”. The “binding to other N-acetylgalactosamine‒specific lectins” value [8] was “bind specifically to human CLEC10A ([Hoober, 2020]) and other N-acetylgalactosamine‒specific lectins”.

For `NCCCCN` [putrescine], the “acceptor amine (second substrate) activity” value (TGM2 [6]) is listed as “active second substrates”.

In the case of `[Ca+2]` [Ca^2+, calcium ion], the “activation constant, KA” value (TGM2 [6]) is listed as 6.9 mM.

In the case of `NCCCCNCCCN` [spermidine], the “acceptor amine (second substrate) activity” value (TGM2 [6]) is listed as “active second substrates”.

For [(NQHTPR-GGGS)2K2]K-NH2 [sv6D], the mean epidermal thickness [1] was 17.1 μm, the “repair of structural disruption of the epidermis (general statement)” value [1] was “structural disruption of the epidermis was repaired” and the “Km relative to svL4” value (TGM2 [5]) was “higher Km values”. For the same compound, the “TGM2 functional substrate / cross-linking to lysine” value (TGM2 [5]) was “the enzyme can use glutamine from the arms; also recorded: functional substrates of transglutaminase (TGM) 2”, the “TGM2 substrate activity” value (TGM2 [5]) was “poor substrates in vitro” and the “TGM2 substrate activity with aged enzyme” value (TGM2 [5]) was “gained the ability to use sv6D”. For the same compound, the positive charge [7] was 12, the “binding to human CLEC10A” value (human CLEC10A (CD301)) was “binds with high specificity and avidity to recombinant and native human CLEC10A (CD301); also recorded: bind specifically to human CLEC10A” and the “binding to other N-acetylgalactosamine‒specific lectins” value [8] was “bind specifically to human CLEC10A ([Hoober, 2020]) and other N-acetylgalactosamine‒specific lectins”.
